Source: PubChem BioAssay (NCI)
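Five concentrations, 48 hours, 96-well plates. GI50 marks 50% less growth. TGI denotes the concentration required for complete inhibition of growth.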

What was measured:
Experiment in all cases: growth of human tumour cells (NCI), 48 h
[1] = system: 786-0 renal
[2] = system: A498 renal
[3] = system: A549 NSCLC
[4] = system: ACHN renal
[5] = system: BT-549 breast
[6] = system: CAKI-1 renal
[7] = system: DU-145 prostate
[8] = system: EKVX NSCLC
[9] = system: HCC-2998 colon
[10] = system: HCT-116 colon
[11] = system: HCT-15 colon
[12] = system: HL-60(TB) leukemia
[13] = system: HOP-62 NSCLC
[14] = system: HOP-92 NSCLC
[15] = system: HS 578T breast
[16] = system: HT29 colon
[17] = system: IGROV1 ovarian
[18] = system: KM12 colon
[19] = system: M14 melanoma
[20] = system: MALME-3M melanoma
[21] = system: MDA-MB-231 breast
[22] = system: MDA-MB-435
[23] = system: NCI-H226 lung
[24] = system: NCI-H23 lung
[25] = system: NCI-H460 lung
[26] = system: NCI-H522 lung
[27] = system: NCI/ADR-RES ovarian
[28] = system: OVCAR-3 ovarian
[29] = system: OVCAR-4 ovarian
[30] = system: OVCAR-5 ovarian
[31] = system: PC-3 prostate
[32] = system: RXF 393 renal
[33] = system: SF-268 CNS
[34] = system: SF-295 CNS
[35] = system: SF-539 CNS
[36] = system: SK-MEL-2 melanoma
[37] = system: SK-MEL-28 melanoma
[38] = system: SK-MEL-5 melanoma
[39] = system: SK-OV-3 ovarian
[40] = system: SN12C renal
[41] = system: SNB-19 CNS
[42] = system: SNB-75 CNS
[43] = system: SW-620 colon
[44] = system: TK-10 renal
[45] = system: U251 CNS
[46] = system: UACC-257 melanoma
[47] = system: UACC-62 melanoma
[48] = system: UO-31 renal
[49] = system: CCRF-CEM leukemia
[50] = system: COLO 205 colon
[51] = system: K-562 leukemia
[52] = system: MOLT-4 leukemia
[53] = system: OVCAR-8 ovarian
[54] = system: T-47D breast
[55] = system: LOX IMVI melanoma
[56] = system: MCF7 breast
[57] = system: RPMI-8226 leukemia

SMILES: Cn1cc(-c2csc(-c3c[nH]c4ccc(F)cc34)n2)c2cnccc21
- GI50 [1]: 1.85 µM
- TGI [1]: 3.47 µM
- GI50 [2]: 1.87 µM
- TGI [2]: 3.31 µM
- GI50 [3]: 1.83 µM
- TGI [3]: 3.42 µM
- GI50 [4]: 1.74 µM
- TGI [4]: 3.12 µM
- GI50 [5]: 1.63 µM
- TGI [5]: 3.06 µM
- GI50 [6]: 1.65 µM
- TGI [6]: 3.05 µM
- GI50 [7]: 1.8 µM
- TGI [7]: 3.28 µM
- GI50 [8]: 1.62 µM
- TGI [8]: 3.3 µM
- GI50 [9]: 1.95 µM
- TGI [9]: 3.66 µM
- GI50 [10]: 1.22 µM
- TGI [10]: 2.56 µM
- GI50 [11]: 1.67 µM
- TGI [11]: 3.36 µM
- GI50 [12]: 2.19 µM
- TGI [12]: 4.32 µM
- GI50 [13]: 1.54 µM
- TGI [13]: 2.98 µM
- GI50 [14]: 1.49 µM
- TGI [14]: 3.09 µM
- GI50 [15]: 2.26 µM
- TGI [15]: 5.08 µM
- GI50 [16]: 1.69 µM
- TGI [16]: 3.29 µM
- GI50 [17]: 1.59 µM
- TGI [17]: 3.09 µM
- GI50 [18]: 1.83 µM
- TGI [18]: 3.49 µM
- GI50 [19]: 1.74 µM
- TGI [19]: 3.27 µM
- GI50 [20]: 1.94 µM
- TGI [20]: 3.46 µM
- GI50 [21]: 1.46 µM
- TGI [21]: 2.93 µM
- GI50 [22]: 1.85 µM
- TGI [22]: 3.31 µM
- GI50 [23]: 1.88 µM
- TGI [23]: 4.03 µM
- GI50 [24]: 1.62 µM
- TGI [24]: 3.25 µM
- GI50 [25]: 1.99 µM
- TGI [25]: 3.95 µM
- GI50 [26]: 1.79 µM
- TGI [26]: 3.29 µM
- GI50 [27]: 1.98 µM
- TGI [27]: 3.98 µM
- GI50 [28]: 1.83 µM
- TGI [28]: 3.32 µM
- GI50 [29]: 1.6 µM
- TGI [29]: 3.06 µM
- GI50 [30]: 1.91 µM
- TGI [30]: 3.36 µM
- GI50 [31]: 1.69 µM
- TGI [31]: 3.61 µM
- GI50 [32]: 1.78 µM
- TGI [32]: 3.25 µM
- GI50 [33]: 1.94 µM
- TGI [33]: 3.58 µM
- GI50 [34]: 1.74 µM
- TGI [34]: 3.25 µM
- GI50 [35]: 1.63 µM
- TGI [35]: 3.04 µM
- GI50 [36]: 1.87 µM
- TGI [36]: 3.48 µM
- GI50 [37]: 1.86 µM
- TGI [37]: 3.29 µM
- GI50 [38]: 1.65 µM
- TGI [38]: 3.05 µM
- GI50 [39]: 1.73 µM
- TGI [39]: 3.16 µM
- GI50 [40]: 1.72 µM
- TGI [40]: 3.22 µM
- GI50 [41]: 1.95 µM
- TGI [41]: 3.52 µM
- GI50 [42]: 1.5 µM
- TGI [42]: 2.85 µM
- GI50 [43]: 2.12 µM
- TGI [43]: 4.09 µM
- GI50 [44]: 2.22 µM
- TGI [44]: 3.75 µM
- GI50 [45]: 1.87 µM
- TGI [45]: 3.4 µM
- GI50 [46]: 1.96 µM
- TGI [46]: 3.55 µM
- GI50 [47]: 1.83 µM
- TGI [47]: 3.39 µM
- GI50 [48]: 1.42 µM
- TGI [48]: 2.73 µM

SMILES: CC(C)(C)c1ccc(O)c(C(O)c2ccncc2)c1 (centres undefined)
- TGI [1]: > 100 µM
- TGI [3]: > 100 µM
- TGI [4]: > 100 µM
- TGI [5]: > 100 µM
- TGI [6]: > 100 µM
- TGI [49]: > 100 µM
- TGI [50]: > 100 µM
- TGI [7]: > 100 µM
- TGI [8]: > 100 µM
- TGI [9]: > 100 µM
- TGI [10]: > 100 µM
- TGI [11]: > 100 µM
- TGI [13]: > 100 µM
- TGI [15]: > 100 µM
- TGI [16]: > 100 µM
- TGI [17]: > 100 µM
- TGI [51]: > 100 µM
- TGI [18]: > 100 µM
- TGI [20]: > 100 µM
- TGI [21]: > 100 µM
- TGI [52]: > 100 µM
- TGI [23]: > 100 µM
- TGI [24]: > 100 µM
- TGI [25]: > 100 µM
- TGI [26]: > 100 µM
- TGI [27]: > 100 µM
- TGI [28]: > 100 µM
- TGI [30]: > 100 µM
- TGI [53]: > 100 µM
- TGI [32]: > 100 µM
- TGI [33]: > 100 µM
- TGI [35]: > 100 µM
- TGI [37]: > 100 µM
- TGI [38]: 66.7 µM
- TGI [42]: > 100 µM
- TGI [43]: > 100 µM
- TGI [54]: > 100 µM
- TGI [48]: > 100 µM

SMILES: Cc1ccc(-n2c(N)c(C#N)c3[nH]nc(N)c3c2=O)cc1
- TGI [1]: > 100 µM
- TGI [2]: > 100 µM
- TGI [4]: > 100 µM
- TGI [6]: > 100 µM
- TGI [49]: > 100 µM
- TGI [50]: > 100 µM
- TGI [7]: > 100 µM
- TGI [8]: > 100 µM
- TGI [9]: > 100 µM
- TGI [10]: > 100 µM
- TGI [11]: > 100 µM
- TGI [12]: > 100 µM
- TGI [13]: > 100 µM
- TGI [14]: > 100 µM
- TGI [15]: > 100 µM
- TGI [16]: > 100 µM
- TGI [17]: > 100 µM
- TGI [51]: > 100 µM
- TGI [18]: > 100 µM
- TGI [55]: > 100 µM
- TGI [19]: > 100 µM
- TGI [56]: > 100 µM
- TGI [21]: > 100 µM
- TGI [22]: > 100 µM
- TGI [52]: > 100 µM
- TGI [23]: > 100 µM
- TGI [24]: > 100 µM
- TGI [25]: > 100 µM
- TGI [27]: > 100 µM
- TGI [29]: > 100 µM
- TGI [53]: > 100 µM
- TGI [31]: > 100 µM
- TGI [57]: > 100 µM
- TGI [32]: > 100 µM
- TGI [33]: > 100 µM
- TGI [34]: > 100 µM
- TGI [35]: > 100 µM
- TGI [36]: > 100 µM
- TGI [37]: > 100 µM
- TGI [38]: > 100 µM
- TGI [39]: > 100 µM
- TGI [41]: > 100 µM
- TGI [42]: > 100 µM
- TGI [43]: > 100 µM
- TGI [54]: > 100 µM
- TGI [44]: > 100 µM
- TGI [45]: > 100 µM
- TGI [46]: > 100 µM
- TGI [47]: > 100 µM
- TGI [48]: > 100 µM

SMILES: Cn1nc(C(=O)N2CC(CCl)c3c2cc(N)c2ccccc32)cc1NC(=O)Nc1cc(C(=O)N2CC(CCl)c3c2cc(N)c2ccccc32)nn1C (centres undefined)
- TGI [2]: 54.5 µM
- TGI [3]: > 100 µM
- TGI [4]: > 100 µM
- TGI [5]: 0.523 µM
- TGI [6]: 6.13 µM
- TGI [8]: > 100 µM
- TGI [9]: > 100 µM
- TGI [11]: > 100 µM
- TGI [13]: 69.3 µM
- TGI [51]: > 100 µM
- TGI [18]: > 100 µM
- TGI [19]: 5.58 µM
- TGI [24]: 0.661 µM
- TGI [25]: > 100 µM
- TGI [27]: > 100 µM
- TGI [29]: > 100 µM
- TGI [30]: > 100 µM
- TGI [57]: > 100 µM
- TGI [32]: 0.511 µM
- TGI [34]: > 100 µM
- TGI [39]: > 100 µM
- TGI [41]: 2.32 µM
- TGI [43]: > 100 µM
- TGI [44]: > 100 µM
- TGI [48]: 65.5 µM
